Results taken from US20070105840A1, “Pyrrolo-dihydroisoquinoline derivatives as pde10 inhibitors” (Altana Pharma AG, priority 2003, published 2007).

| SMILES | melting point |
| --- | --- |
| CCOc1cc2c(cc1OC)-c1c(C#N)c(-c3cc(C)c(O)c(C)c3)c(C)n1C(C)C2 (centres unmarked) [Example 53, 8-Ethoxy-2-(4-hydroxy-3,5-dimethyl-phenyl)-9-methoxy-3,5-dimethyl-5,6-dihydro-pyrrolo[2,1-a]isoquinoline-1-carbonitrile] | 232 to 234 °C |
| COc1cc2c(cc1OC)-c1c(C#N)c(-c3cn(S(=O)(=O)N(C)C)c4ccccc34)c(C)n1C(C)C2 (centres unmarked) [Example 54, 3-(1-Cyano-8,9-dimethoxy-3,5-dimethyl-5,6-dihydro-pyrrolo[2,1-a]isoquinolin-2-yl)-indole-1-sulfonic acid dimethylamide] | 236 to 237 °C |
| COC(=O)c1c(-c2cc(C)c(O)c(C)c2)c(C)n2c1-c1cc(OC)c(OC)cc1CC2C (centres unmarked) [Example 65, 2-(4-Hydroxy-3,5-dimethyl-phenyl)-8,9-dimethoxy-3,5-dimethyl-5,6-dihydro-pyrrolo[2,1-a]isoquinoline-1-carboxylic acid methyl ester] | 177 to 179 °C |
| COC(=O)c1c(-c2cn(S(=O)(=O)c3ccc(C)cc3)c3ccccc23)c(C)n2c1-c1cc(OC)c(OC)cc1CC2C (centres unmarked) [Example 66, 8,9-Dimethoxy-3,5-dimethyl-2-[1-(toluene-4-sulfonyl)-1H-indol-3-yl]-5,6-dihydro-pyrrolo[2,1-a]isoquinoline-1-carboxylic acid methyl ester] | 177 to 179 °C |
| COc1cc2c(cc1OC)-c1c(C)c(-c3cc(C)c(O)c(C)c3)c(C)n1CC2 [Example 68, 4-(8,9-Dimethoxy-1,3-dimethyl-5,6-dihydro-pyrrolo[2,1-a]isoquinolin-2-yl)-2,6-dimethyl-phenol] | 183 to 185 °C |

Continued, values first:

| melting point | SMILES |
| --- | --- |
| 204 to 207 °C | COc1cc2c(cc1OC)-c1c(C#N)c(-c3ccc(-c4nn[nH]n4)cc3)c(C)n1C(C)C2 (centres unmarked) [Example 57, 8,9-Dimethoxy-3,5-dimethyl-2-[4-(2H-tetrazol-5-yl)-phenyl]-5,6-dihydro-pyrrolo[2,1-a]isoquinoline-1-carbonitrile] |
| 223 to 225 °C | COc1cc2c(cc1OC)-c1c(C#N)c(-c3ccc(NS(=O)(=O)N4CCOCC4)cc3)c(C)n1C(C)C2 (centres unmarked) [Example 58, Morpholine-4-sulfonic acid [4-(1-cyano-8,9-dimethoxy-3,5-dimethyl-5,6-dihydro-pyrrolo[2,1-a]isoquinolin-2-yl)-phenyl]-amide] |
| 257 to 259 °C | COc1cc2c(cc1OC)-c1c(C#N)c(-c3ccc(NS(C)(=O)=O)cc3)c(C)n1C(C)C2 (centres unmarked) [Example 59, N-[4-(1-Cyano-8,9-dimethoxy-3,5-dimethyl-5,6-dihydro-pyrrolo[2,1-a]isoquinolin-2-yl)-phenyl]-methanesulfonamide] |
